Data: patent US10829488B2, “N-(phenylsulfonyl)benzamides and related compounds as bcl-2 inhibitors” (THE REGENTS OF THE UNIVERSITY OF MICHIGAN, priority 2016, dated 2020)
Read-outs that look alike come from different tables or passages of the source.

How the values were obtained:
Pharmacokinetics in rats = conditions: rat, in vivo
Method: The pharmacokinetics of ABT-199 and representative Compounds of the Disclosure were evaluated in rats at an IV dose of 2 mg/kg and an oral dose of 20 mg/kg.

[1] = tested on: RS4;11 leukemia xenograft; experiment: Antitumor activity in RS4;11 leukemia xenograft model; type: in vivo; conditions: nude mice, oral gavage, treatment started day 11, FIG. 3
Method: (§1) The antitumor activity of Cpd. No. 6 (compound 6) was also studied in the RS4;11 leukemia xenograft model. Human RS4;11 tumor cells were injected into nude mice and treatment started on day 11 when the tumor size reached approximately 100 mm^3. Cpd. No. 6 was administered via oral gavage at indicated doses and schedules. Cpd.

[2] = Mouse weight in RS4;11 leukemia xenograft model; type: in vivo; conditions: nude mice, oral gavage, FIG. 4
Method: as §1

[3] = IV 2 mg/kg, read-out: AUC0-∞ (ng · h/mL) IV
[4] = oral 20 mg/kg, read-out: AUC0-∞ (ng · h/mL) PO

| Structure (SMILES) | AUC(0-inf) (Pharmacokinetics in rats; [3]) [ng·h/mL] | AUC(0-inf) (Pharmacokinetics in rats; [4]) [ng·h/mL] | Antitumor activity (tumor growth) [1] | Mouse weight [2] |
| --- | --- | --- | --- | --- |
| CC1(C)CCC(CN2CCN(c3ccc(C(=O)NS(=O)(=O)c4ccc(NCC5CCOCC5)c([N+](=O)[O-])c4)c(Oc4cnc5[nH]ccc5c4)c3)CC2)=C(c2ccc(Cl)cc2)C1 [ABT-199, Venetoclax, reference compound] | 5450 | 20800 |  |  |
| O=C(NS(=O)(=O)c1ccc(NCC2CCOCC2)c([N+](=O)[O-])c1)c1ccc(N2CCN(CC3=C(c4ccc(Cl)cc4)CC4(CCC4)CC3)CC2)cc1Oc1cnc2[nH]ccc2c1 [Cpd. No. 3, 2-((1H-pyrrolo[2,3-b]pyridin-5-yl)oxy)-4-(4-((6-(4-chlorophenyl)spiro[3.5]non-6-en-7-yl)methyl)piperazin-1-yl)-N-((3-nitro-4-(((tetrahydro-2H-pyran-4-yl)methyl)amino)phenyl)sulfonyl)benzamide] | 2680 | 7780 |  |  |
| O=C(NS(=O)(=O)c1ccc(NC[C@H]2COCCO2)c([N+](=O)[O-])c1)c1ccc(N2CCN(CC3=C(c4ccc(Cl)cc4)CC4(CCC4)CC3)CC2)cc1Oc1cnc2[nH]ccc2c1 [Cpd. No. 6, (S)-N-((4-(((1,4-dioxan-2-yl)methyl)amino)-3-nitrophenyl)sulfonyl)-2-((1H-pyrrolo[2,3-b]pyridin-5-yl)oxy)-4-(4-((6-(4-chlorophenyl)spiro[3.5]non-6-en-7-yl)methyl)piperazin-1-yl)benzamide] | 2920 | 13500 | inhibits tumor growth | does not cause weight loss |
